Laboratory results as given in US12559492B2, “BRAF degraders” (C4 Therapeutics, Inc., priority 2020, dated 2026).

Molecular target: BRAF^V600E protein (Homo sapiens, UniProt P15056, V600E)
Assay: HiBiT cellular BRAF V600E degradation assay
Format: cell-based
Conditions: 24 h incubation; for DC50: A375.10 cells (HiBiT tag knocked in at N-terminal of BRAF V600E), concentration at which 50% of total cellular BRAF V600E is degraded; for Emax: A375.10 cells, Emax = amount of residual protein remaining in the cell after compound treatment, read-out: HiBit 24 h Emax

Chain of BRAF^V600E protein (P15056 whole entry V600E): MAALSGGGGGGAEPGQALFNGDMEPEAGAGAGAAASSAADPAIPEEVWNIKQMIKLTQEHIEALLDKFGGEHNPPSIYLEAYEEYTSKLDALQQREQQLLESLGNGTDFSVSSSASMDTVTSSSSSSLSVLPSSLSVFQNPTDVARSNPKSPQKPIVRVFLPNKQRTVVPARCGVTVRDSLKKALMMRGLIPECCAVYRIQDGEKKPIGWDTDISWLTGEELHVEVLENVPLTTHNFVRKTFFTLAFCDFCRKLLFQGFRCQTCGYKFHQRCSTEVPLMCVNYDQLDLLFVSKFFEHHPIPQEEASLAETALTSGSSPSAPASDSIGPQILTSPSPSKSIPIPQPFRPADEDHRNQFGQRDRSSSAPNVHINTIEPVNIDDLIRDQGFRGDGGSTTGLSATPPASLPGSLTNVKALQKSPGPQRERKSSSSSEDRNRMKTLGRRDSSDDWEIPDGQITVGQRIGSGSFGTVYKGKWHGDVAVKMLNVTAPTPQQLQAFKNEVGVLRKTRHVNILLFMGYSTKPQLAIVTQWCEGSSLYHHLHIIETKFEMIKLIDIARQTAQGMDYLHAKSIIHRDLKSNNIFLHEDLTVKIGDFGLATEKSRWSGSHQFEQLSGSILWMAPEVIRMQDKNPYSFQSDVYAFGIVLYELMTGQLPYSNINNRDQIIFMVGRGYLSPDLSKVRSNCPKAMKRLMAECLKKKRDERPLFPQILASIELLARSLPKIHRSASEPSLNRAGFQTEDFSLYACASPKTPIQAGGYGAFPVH

| SMILES | DC50 [nM] | Emax [%] |
| --- | --- | --- |
| CCN(C)S(=O)(=O)Nc1ccc(F)c(C(=O)c2c[nH]c3ncc(-c4ccc(N5CCN(C(=O)CC6(O)CCN(c7ccc(C8CCC(=O)NC8=O)cc7F)CC6)CC5)cc4)cc23)c1F (stereo not shown) [Example 175, 5-[4-[4-[2-[1-[4-(2,6-dioxo-3-piperidyl)-2-fluoro-phenyl]-4-hydroxy-4-piperidyl]acetyl]piperazin-1-yl]phenyl]-3-[3-[[ethyl(methyl)sulfamoyl]amino]-2,6-difluoro-benzoyl]-1H-pyrrolo[2,3-b]pyridine] | 7.12 | 9.59 |
| CCN(C)S(=O)(=O)Nc1ccc(F)c(C(=O)c2c[nH]c3ncc(-c4ccc(N5CCN(C(=O)CC6(O)CCN(c7ccc(NC8CCC(=O)NC8=O)cc7F)CC6)CC5)c(Cl)c4)cc23)c1F (stereo not shown) [Example 180, 5-[3-chloro-4-[4-[2-[1-[4-[(2,6-dioxo-3-piperidyl)amino]-2-fluoro-phenyl]-4-hydroxy-4-piperidyl]acetyl]piperazin-1-yl]phenyl]-3-[3-[[ethyl(methyl)sulfamoyl]amino]-2,6-difluoro-benzoyl]-1H-pyrrolo[2,3-b]pyridine] | 4.62 | 8.93 |
| CCN(C)S(=O)(=O)Nc1ccc(F)c(C(=O)c2c[nH]c3ncc(-c4ccn(C5CCN(C(=O)CC6(O)CCN(c7ccc(NC8CCC(=O)NC8=O)cc7F)CC6)CC5)c(=O)c4)cc23)c1F (stereo not shown) [Example 181, 5-[1-[1-[2-[1-[4-[(2,6-dioxo-3-piperidyl)amino]-2-fluoro-phenyl]-4-hydroxy-4-piperidyl]acetyl]-4-piperidyl]-2-oxo-4-pyridyl]-3-[3-[[ethyl(methyl)sulfamoyl]amino]-2,6-difluoro-benzoyl]-1H-pyrrolo[2,3-b]pyridine] | 11.5 | 13.5 |
| CCN(C)S(=O)(=O)Nc1ccc(F)c(C(=O)c2c[nH]c3ncc(-c4cnc(N5CCC(OCC6CCN(c7ccc(NC8CCC(=O)NC8=O)cc7F)CC6)CC5)nc4)cc23)c1F (stereo not shown) [Example 182, 5-[2-[4-[[1-[4-[(2,6-dioxo-3-piperidyl)amino]-2-fluoro-phenyl]-4-piperidyl]methoxy]-1-piperidyl]pyrimidin-5-yl]-3-[3-[[ethyl(methyl)sulfamoyl]amino]-2,6-difluoro-benzoyl]-1H-pyrrolo[2,3-b]pyridine] | 17.9 | 7.7 |
| CCN(C)S(=O)(=O)Nc1ccc(F)c(C(=O)c2c[nH]c3ncc(-c4ccc(N5CCN(C(=O)CC6(O)CCN(c7ccc(NC8CCC(=O)NC8=O)c(F)c7)CC6)CC5)cc4)cc23)c1F (stereo not shown) [Example 184, 5-[4-[4-[2-[1-[4-[(2,6-dioxo-3-piperidyl)amino]-3-fluoro-phenyl]-4-hydroxy-4-piperidyl]acetyl]piperazin-1-yl]phenyl]-3-[3-[[ethyl(methyl)sulfamoyl]amino]-2,6-difluoro-benzoyl]-1H-pyrrolo[2,3-b]pyridine] | 3.54 | 9.04 |
| O=C1CCC(Nc2ccc(N3CCC(O)(CC(=O)N4CCN(c5ccc(-c6cnc7[nH]cc(C(=O)c8c(F)ccc(NS(=O)(=O)N9CC[C@@H](F)C9)c8F)c7c6)cn5)CC4)CC3)c(F)c2)C(=O)N1 (stereo partly drawn) [Example 190, (3R)—N-[3-[5-[6-[4-[2-[1-[4-[(2,6-dioxo-3-piperidyl)amino]-2-fluoro-phenyl]-4-hydroxy-4-piperidyl]acetyl]piperazin-1-yl]-3-pyridyl]-1H-pyrrolo[2,3-b]pyridine-3-carbonyl]-2,4-difluoro-phenyl]-3-fluoro-pyrrolidine-1-sulfonamide] | 2.72 | 7.07 |
| O=C1CCC(Nc2ccc(N3CCC(O)(CC(=O)N4CCN(c5ccc(-c6cnc7[nH]cc(C(=O)c8c(F)ccc(NS(=O)(=O)N9CC[C@@H](F)C9)c8F)c7c6)cc5)CC4)CC3)c(F)c2)C(=O)N1 (stereo partly drawn) [Example 191, (3R)—N-[3-[5-[4-[4-[2-[1-[4-[(2,6-dioxo-3-piperidyl)amino]-2-fluoro-phenyl]-4-hydroxy-4-piperidyl]acetyl]piperazin-1-yl]phenyl]-1H-pyrrolo[2,3-b]pyridine-3-carbonyl]-2,4-difluoro-phenyl]-3-fluoro-pyrrolidine-1-sulfonamide] | 3.89 | 7.76 |

Next, values leading:

| DC50 [nM] | Emax [%] | SMILES |
| --- | --- | --- |
| 2.39 | 9.44 | CCN(C)S(=O)(=O)Nc1ccc(F)c(C(=O)c2c[nH]c3ncc(-c4cnc(N5CCN(C(=O)CC6(O)CCN(c7ccc(N[C@@H]8CCC(=O)NC8=O)cc7F)CC6)CC5)nc4)cc23)c1F [Example 174, 5-[2-[4-[2-[1-[4-[[(3R)-2,6-dioxo-3-piperidyl]amino]-2-fluoro-phenyl]-4-hydroxy-4-piperidyl]acetyl]piperazin-1-yl]pyrimidin-5-yl]-3-[3-[[ethyl(methyl)sulfamoyl]amino]-2,6-difluoro-benzoyl]-1H-pyrrolo[2,3-b]pyridine] |
| 5.84 | 9.54 | CCN(C)S(=O)(=O)Nc1ccc(F)c(C(=O)c2c[nH]c3ncc(-c4ccc(N5CCN(C(=O)CC6(O)CCN(c7ccc(N[C@H]8CCC(=O)NC8=O)cc7F)CC6)CC5)nc4)cc23)c1F [Example 176, 5-[6-[4-[2-[1-[4-[[(3S)-2,6-dioxo-3-piperidyl]amino]-2-fluoro-phenyl]-4-hydroxy-4-piperidyl]acetyl]piperazin-1-yl]-3-pyridyl]-3-[3-[[ethyl(methyl)sulfamoyl]amino]-2,6-difluoro-benzoyl]-1H-pyrrolo[2,3-b]pyridine] |
| 3.65 | 9.99 | CCN(C)S(=O)(=O)Nc1ccc(F)c(C(=O)c2c[nH]c3ncc(-c4ccc(N5CCN(C(=O)CC6(O)CCN(c7ccc(N[C@@H]8CCC(=O)NC8=O)cc7F)CC6)CC5)nc4)cc23)c1F [Example 177, 5-[6-[4-[2-[1-[4-[[(3R)-2,6-dioxo-3-piperidyl]amino]-2-fluoro-phenyl]-4-hydroxy-4-piperidyl]acetyl]piperazin-1-yl]-3-pyridyl]-3-[3-[[ethyl(methyl)sulfamoyl]amino]-2,6-difluoro-benzoyl]-1H-pyrrolo[2,3-b]pyridine] |
| 2.71 | 9.65 | CCN(C)S(=O)(=O)Nc1ccc(F)c(C(=O)c2c[nH]c3ncc(-c4ccc(N5CCN(C(=O)CC6(O)CCN(c7ccc(N[C@@H]8CCC(=O)NC8=O)cc7F)CC6)CC5)cc4)cc23)c1F [Example 178, 5-[4-[4-[2-[1-[4-[[(3R)-2,6-dioxo-3-piperidyl]amino]-2-fluoro-phenyl]-4-hydroxy-4-piperidyl]acetyl]piperazin-1-yl]phenyl]-3-[3-[[ethyl(methyl)sulfamoyl]amino]-2,6-difluoro-benzoyl]-1H-pyrrolo[2,3-b]pyridine] |
| 5.91 | 8.35 | CCN(C)S(=O)(=O)Nc1ccc(F)c(C(=O)c2c[nH]c3ncc(-c4ccc(N5CCN(C(=O)CC6(O)CCN(c7ccc(N[C@H]8CCC(=O)NC8=O)cc7F)CC6)CC5)cc4)cc23)c1F [Example 179, 5-[4-[4-[2-[1-[4-[[(3S)-2,6-dioxo-3-piperidyl]amino]-2-fluoro-phenyl]-4-hydroxy-4-piperidyl]acetyl]piperazin-1-yl]phenyl]-3-[3-[[ethyl(methyl)sulfamoyl]amino]-2,6-difluoro-benzoyl]-1H-pyrrolo[2,3-b]pyridine] |
| 6.48 | 7.43 | CCN(C)S(=O)(=O)Nc1ccc(Cl)c(C(=O)c2c[nH]c3ncc(-c4cnc(N5CCN(C(=O)CC6(O)CCN(c7ccc(NC8CCC(=O)NC8=O)cc7F)CC6)CC5)nc4)cc23)c1F (stereo not shown) [Example 185, 3-[6-chloro-3-[[ethyl(methyl)sulfamoyl]amino]-2-fluoro-benzoyl]-5-[2-[4-[2-[1-[4-[(2,6-dioxo-3-piperidyl)amino]-2-fluoro-phenyl]-4-hydroxy-4-piperidyl]acetyl]piperazin-1-yl]pyrimidin-5-yl]-1H-pyrrolo[2,3-b]pyridine] |
| 5.45 | 8.35 | CCN(C)S(=O)(=O)Nc1ccc(F)c(C(=O)c2c[nH]c3ncc(-c4cnc(N5CCN(C(=O)CC6(O)CCN(c7ccc(NC8CCC(=O)NC8=O)cc7F)CC6)CC5)c(C#N)c4)cc23)c1F (stereo not shown) [Example 186, 5-[5-cyano-6-[4-[2-[1-[4-[(2,6-dioxo-3-piperidyl)amino]-2-fluoro-phenyl]-4-hydroxy-4-piperidyl]acetyl]piperazin-1-yl]-3-pyridyl]-3-[3-[[ethyl(methyl)sulfamoyl]amino]-2,6-difluoro-benzoyl]-1H-pyrrolo[2,3-b]pyridine] |
| 3.6 | 7.8 | CCN(C)S(=O)(=O)Nc1ccc(F)c(C(=O)c2c[nH]c3ncc(-c4cnc(N5CCN(C(=O)CC6(O)CCN(c7ccc(NC8CCC(=O)NC8=O)cc7F)CC6)CC5)cn4)cc23)c1F (stereo not shown) [Example 187, 5-[5-[4-[2-[1-[4-[(2,6-dioxo-3-piperidyl)amino]-2-fluoro-phenyl]-4-hydroxy-4-piperidyl]acetyl]piperazin-1-yl]pyrazin-2-yl]-3-[3-[[ethyl(methyl)sulfamoyl]amino]-2,6-difluoro-benzoyl]-1H-pyrrolo[2,3-b]pyridine] |
| 4.5 | 5.98 | CCN(C)S(=O)(=O)Nc1ccc(F)c(C(=O)c2c[nH]c3ncc(-c4cnc(N5CCN(C(=O)CC6(O)CCN(c7ccc(NC8CCC(=O)NC8=O)cc7F)CC6)CC5)c(F)c4)cc23)c1F (stereo not shown) [Example 188, 5-[6-[4-[2-[1-[4-[(2,6-dioxo-3-piperidyl)amino]-2-fluoro-phenyl]-4-hydroxy-4-piperidyl]acetyl]piperazin-1-yl]-5-fluoro-3-pyridyl]-3-[3-[[ethyl(methyl)sulfamoyl]amino]-2,6-difluoro-benzoyl]-1H-pyrrolo[2,3-b]pyridine] |
| 58.4 | 14.9 | CCN(C)S(=O)(=O)Nc1ccc(F)c(C(=O)c2c[nH]c3ncc(-c4ccc(N5CCN(C(=O)CC6(O)CCN(c7ccc(NC8CCC(=O)NC8=O)cc7F)CC6)CC5)cc4C)cc23)c1F (stereo not shown) [Example 189, 5-[4-[4-[2-[1-[4-[(2,6-dioxo-3-piperidyl)amino]-2-fluoro-phenyl]-4-hydroxy-4-piperidyl]acetyl]piperazin-1-yl]-2-methyl-phenyl]-3-[3-[[ethyl(methyl)sulfamoyl]amino]-2,6-difluoro-benzoyl]-1H-pyrrolo[2,3-b]pyridine] |
